Results reported in a melting point compilation (Tetko et al.; mined from patent text by program, amines drawn as free bases though some values may be those of a salt).

| melting point [°C] | Structure (SMILES) |
| --- | --- |
| 148 | CCCCCCCCOc1ccc2c(c1CCC)OC(CCC(=O)O)(CCC(=O)O)CC2=O |
| 53 to 54 | COC(C)(C)C(=O)C(Oc1ccc(Cl)cc1Cl)n1cncn1 (configuration not stated) |
| 155 to 156 | CC1(C)CCCCc2ccc(C(=O)O)cc21 |
| 97 to 99 | COc1ccccc1CCNC[C@H](O)COc1ncccc1C#N |
| 197 | CC(=O)Nc1cc(C)c(N)c(C)c1[N+](=O)[O-] |
| 170 to 171 | COc1cc2ncnc(Nc3ccc(F)c(Cl)c3)c2cc1OCCCC1OCCO1 |
| 117 to 120 | CC(=O)C(=Cc1ccc([N+](=O)[O-])o1)C(C)=O |
| 160 | COc1ccc(CN(C)CCOc2ccc(NC(=O)c3cccc4c(=O)c5cc(SC)ccc5[nH]c34)cc2)cc1OC |
| 212 | COC(=O)c1ccc(OC)c2c1OCCCO2 |
| 102 to 105 | C=CCN1C(=O)C(C)(CN2CCN(c3cccc4c3OCCO4)CC2)N=C1c1cccnc1 (configuration not stated) |
| 131 to 132 | CCc1cc(OCc2ccc3oc(-c4ccccc4C(=O)OC)nc3c2)c2c(n1)CCCC2 |
| 111 to 113 | COc1c2c(c(OC)c(OC)c1OC)CCC(CCOc1cccnc1)CC2 |
| 92 to 93 | COc1cnc(CSc2nc3cc(OC(F)(F)F)ccc3[nH]2)cc1OC |
| 154 to 156 | O=C(Nc1ccccc1N1CCOCC1)c1cccc2c1C(=O)c1ccccc1-2 |
| 77.8 to 78.5 | C=CCOc1ccc(C(=O)CC(C)(C#N)c2ccc(OC)cc2OC)cc1 (configuration not stated) |
| 109 | COCC(O)c1cccc(S(N)(=O)=O)c1 (configuration not stated) |
| 218 to 220 | COC(=O)c1cc2[nH]nc(N)c2s1 |
| 150 | COc1c(Cl)ccc(Cl)c1C(=O)NO |
| 160 to 165 | O=C(O)c1cc(-c2ccc3c(c2)CCO3)nn(CC2CC2)c1=O |
| 92 | CC1(C)CCCC(=Cc2ccc(Cl)cc2)C1=O |
| 189 to 190 | CC(C)(C)C(=O)Nc1ccc2oc3c(c2c1)CCCCCC3 |
| 93 to 96 | CSc1ccc(C(CC2CCCO2)C(=O)O)cc1Cl (configuration not stated) |

The remaining lines, values behind:

| Structure (SMILES) | melting point [°C] |
| --- | --- |
| COc1cc(COc2nn(-c3ccccc3)cc2C=O)ccc1OCc1coc(-c2ccco2)n1 | 162 to 163 |
| Cc1c(OCC(C)(C)CS(N)(=O)=O)nn2ncnc2c1C | 175 to 177 |
| C=C(C=O)c1ccc(Cl)cc1[N+](=O)[O-] | 87 to 88 |
| O=C(CNc1ccccc1)c1ccccc1 | 97 to 99 |
| O=[N+]([O-])c1cc(Br)cc(Br)c1 | 102 to 104 |
| Fc1ccc(NC(=S)c2ccccn2)c(F)c1 | 124 to 129 |
| C[C@@H](Oc1cc(-c2ncc(C(F)(F)F)cc2F)c(F)cc1Cl)C(=O)O | 48 to 50 |
| CN1CCN(C(=S)Nc2cc3sc(C(C)(C)C)nc3cc2N2CCN(C)CC2)CC1 | 190 to 193 |
| S=c1[nH]c(Nc2ccc(Cl)cc2)nc2ccccc12 | 264 to 268 |
| O[C@H]1CC[C@H](CN2CCC(=C3c4ccc(F)cc4Sc4ccc(C(F)(F)F)cc43)CC2)CC1 | 144 to 146 |
| Cc1ncccc1Oc1ccc(NC(=O)C=Cc2ccccc2Cl)cn1 | 187 to 189 |
| Cc1cc(COc2nn3c(-c4ccccc4F)nncc3c2-c2ccccc2F)nn1C | 183 |
| CN(C(=O)Nc1ccc(Oc2ccccc2)cc1)C(Cl)C(Cl)(Cl)Cl (configuration not stated) | 160 to 162 |
| CCCCCCCCCCCCCCOc1ccc(N(CC(=O)O)CC(=O)O)cc1OCCCCCCCCCCCCCC | 89 to 93 |
| Cc1nn(CCO)c(C)c1Oc1cc(Cl)cc(C#N)c1 | 114 to 116 |
| O=c1oc2c(OCc3nnn[nH]3)c(O)c(OCc3nnn[nH]3)c(O)c2c2c1CCCC2 | 283 to 286 |
| COc1cc(C2CCN(C[C@@H](C)O)CC2)ccc1Nc1ncc2ccc(-c3ccccc3N(C)S(C)(=O)=O)n2n1 | 91 to 103 |
| O=c1[nH]c2sc3ccc(Cl)cc3c2[nH]c1=O | > 340 |
| OCCN1CCCNC1=S | 112 to 114 |
| CCN(CC)CCOc1ccc2c3c(cccc13)C(=O)c1c-2oc2ccccc12 | 115 to 118 |
| CC(=O)c1ccc(-n2c(-c3cc(-c4ccc(S(C)(=O)=O)cc4)c(N4CCOCC4)s3)nc3ccccc3c2=O)cc1 | 239 to 242 |
| Oc1nc2cc(Cl)ccc2n2cnnc12 | > 300 |
| Nc1cccc(Cn2c(-c3ccc(O)cc3)ccc2-c2ccccc2Cl)n1 | 170 to 172 |
| Oc1ccc(O)c2cc3ccccc3cc12 | 167 to 169 |
| CC(=O)N[C@H](COC1CCCCO1)C(=O)NCCO[N+](=O)[O-] (some centres not stated) | 93 to 95 |

| Structure (SMILES) | melting point [°C] |
| --- | --- |
| NC(=O)COC(=O)NCCC[C@H]1OC[C@H](c2ccc(Cl)c3ccccc32)CO1 | 176 to 178 |
| Cc1cc(-c2ccccc2)nnc1NN | 162 |
| CCOC(=O)CCc1cc(S(C)(=O)=O)cc(-c2nc(=O)c3ccc(Cl)cc3s2)n1 | 240 |
| Cc1ccc(S(=O)(=O)N2[C@H](CCCc3nnnn3C)CC[C@@H]2c2ccc(F)cc2)cc1 (racemic) | 153 |
| CCOC(=O)c1nc(-c2ccc(OCc3ccccc3)cc2)[nH]c1-c1ccc(C)cc1 | 168 to 170 |
| Cc1nc2ncnn2c(N2CCC(C)CC2)c1C1CCCC1 | 145 |
| CCOC(=O)c1ncn2c1[C@@H]1CCCN1C(=O)c1cc(F)ccc1-2 | 194 to 195 |
| COc1ccc(CN2C(=O)C3(COc4cc5onc(N)c5cc43)c3ccccc32)cc1 (configuration not stated) | 214 to 216 |
| CN(CC(O)C(O)C(O)C(O)CO)C(=O)c1c(I)c(N)c(I)c(N)c1I (configuration not stated) | 110 |
| CCOC(=O)c1cc(C)n(-c2cccc(S(C)(=O)=O)c2)c1-c1ccccc1 | 131 to 133 |
| Cc1nn2ccccc2c1C1=NNC(=O)CC1C (configuration not stated) | 146 to 147 |
| CCOP(=O)(COCCOn1cnc2c(N)nc(N)nc21)OCC | 139 to 141 |
| CCOC(=O)c1c(C)n(C(=O)c2ccccc2)c2ccc(Oc3nc(OC)cc(OC)n3)c(C(=O)OCc3ccccc3)c12 | 128 to 132 |
| CN(C1CN(C(=O)Nc2ccc(C(F)(F)F)cc2)N=C1c1ccc(Cl)cc1)S(C)(=O)=O (configuration not stated) | 105 to 112 |
| Cc1ccc2oc(C(O)[C@H](C)NC(=O)OCc3ccccc3)nc2c1 (some centres not stated) | 134 to 135 |
| O=C(OCn1cc(F)c(=O)n(COC(=O)c2ccccc2)c1=O)c1ccccc1 | 178 to 180 |
| Cc1ccc(S(=O)(=O)N(CCCl)N(S(C)(=O)=O)S(C)(=O)=O)cc1 | 99 to 101 |
| CCCc1c(OCCc2cc3cc(CC(=O)O)ccc3[nH]2)ccc2c(-c3ccccc3)coc12 | 129 to 130 |
| CC(C)(C)c1cc(CCN=C(O)c2cc(C(O)=NCCc3cc(C(C)(C)C)c(O)c(C(C)(C)C)c3)c(C(=O)O)cc2C(=O)O)cc(C(C)(C)C)c1O | 231 to 233 |
| CCC(=O)C(C#N)Cc1cc(Cl)cc(Cl)c1 (configuration not stated) | 59 to 60 |
| Cc1cc2c(=O)[nH][nH]c(=O)c2n1CC(C)C | 278 to 282 |
| Oc1ccnc2ccc3nc[nH]c3c12 | 366 to 368 |
| Oc1c(Cl)cc(Cn2c(S)nc3ccccc32)cc1Cl | 246 |
| COc1ccc2c(c1)Nc1cccc(S(=O)(=O)N(C)C)c1S2 | 196 to 198 |
| CCOCC(O)(COCC)C(Cc1cc(OC)cc(OC)c1)NC(=O)OC(C)(C)C (configuration not stated) | 73.5 to 75 |
